The text below walks through data of PMC9240354, “Pharmacokinetics, Pharmacodynamics and Antiviral Efficacy of the MEK Inhibitor Zapnometinib in Animal Models and in Humans” (Frontiers in Pharmacology, 2022).

One series in a line: tolerability in mice. Type of series: in vivo. Conditions: influenza virus infected mice, 25 mg/kg BID p.o. The protocol:
Zapnometinib [2-(2-Chloro-4-Iodophenylamino)-N-3,4-Difluoro benzoic acid] (M = 409.56 g/mol) was synthesized at ChemCon GmbH (Freiburg, Germany). The doses used in this study were chosen based on previously unpublished preclinical data. […] The toxicity of zapnometinib was evaluated in single- and repeat-dose p. o. studies of up to 1-month duration in rats and dogs. The genetic toxicity of zapnometinib was investigated in compliance with ICH S2; a standard battery of genotoxicity studies was performed, comprising an Ames test, an in vitro chromosome aberration test in human lymphocytes and an in vivo micronucleus assay in rats. Thus, the doses used in this manuscript were safe (Koch-Heier et al., manuscript in preparation). For treatment of mice, 10.5 mg zapnometinib were dissolved in 5% (v/v) dimethyl sulfoxide (DMSO) (Carl Roth GmbH, Karlsruhe, Germany) and further diluted with 15% (v/v) Cremophor EL (Merck KGaA, Darmstadt, Germany), and 80% (v/v) phosphate-buffered saline (PBS) (Gibco, Carlsbad, CA, California, United States). Each mouse received a dose of 25 mg/kg zapnometinib in an application volume of 200 µL of the formulation by oral gavage. The first treatment was given on day 0 (1 h prior to influenza virus infection) and the second treatment 7 h post infection. […]

Series [1] in a line: pharmacokinetics, summary regardless of species. Type of series: in vivo, mice, hamsters, dogs, human. Conditions: regardless of species or formulation. The protocol:
Pharmacokinetic analysis of the mouse plasma samples was performed using standard procedures at Prolytic GmbH (Frankfurt, Germany). Hamster plasma samples were analyzed at Synovo GmbH (Tuebingen, Germany) using HPLC MS/MS (Agilent 1260 HPLC with Sciex API4500) with linear response for plasma concentrations between 15 nM and 33 µM (6.1 ng/ml to 13.5 μg/ml). Pharmacokinetic analyses of the dog plasma samples were performed at Pharmascience Inc. (Montreal, Canada) using an HPLC MS/MS method for the determination of zapnometinib plasma concentrations. The validated calibration range for this assay is from 0.6 μg/ml to […] for which all validation requirements were successfully evaluated. Regressions, calibration standard, quality control sample, animal sample result tables, acquisition methods and chromatograms were generated by Applied Biosystems Analyst^TM software, version 1.6.2. Plasma concentrations of zapnometinib of the human samples were determined at SGS Life Sciences (Bioanalysis Department, Wavre, Belgium) using a validated HPLC MS/MS method with a lower limit of quantification of 10 ng/ml for the analyte zapnometinib. Statistical analysis was performed by SGS (demography and safety analyses, exposure, and compliance) using SAS® version 9.4 (SAS Institute Inc., Cary, NC, United States).

The conditions of series [2]: mice.
The conditions of series [3]: Syrian hamsters.
For series [4], the system named is influenza A and B viruses. Also noted: method as in Laure et al., 2020. The following applies: in vitro, ref Laure et al., 2020, read-out: EC50 antiviral efficacy; cited from earlier work.
The next series can be described thus: in vivo. The following applies: C57BL/6, mouse.
The test system of a further series is human PBMCs. The following applies: read-out: CC50 cytotoxicity, ref Laure et al., 2020; cited from earlier work.
For another series, the system named is MEK1/2. In words: phosphorylation of MEK and ERK in PMA-stimulated human PBMCs (Wes). Conditions: 50 µg/ml 1 h, then 400 nM PMA 30 min.

Where two headings read alike, the source gives them in different places.

Description for MEK1/2: PBMCs from healthy donors were isolated, treated with zapnometinib, stimulated with Phorbol-12-Mystrat-13-Acetat (PMA) and analyzed for the reduction of MEK and ERK phosphorylation.
PBMCs of 30 ml human blood were isolated using SepMate^TM tubes (Stemcell Technologies, Vancouver, Canada) by density gradient centrifugation according to manufacturer’s instructions. The PBMCs were then cultured in the plasma and treated with 50 µg/ml zapnometinib or DMSO for 1 h at 37°C and 5% CO2. Afterwards, the PBMCs were stimulated with 400 nM PMA (Sigma-Aldrich, St. Louis, Missouri, USA) for 30 minutes at 37°C and 5% CO2. After stimulation, the cells were washed twice with PBS and centrifuged 8 minutes at 300 x g at RT. The cells were then lysed in 1x RIPA buffer and analyzed with Wes™ for phosphorylation of ERK and MEK using specific antibodies as described in the Pharmacodynamic assessment to determine level of MEK inhibition section. […]
PBMCs of healthy human volunteers were treated for 1 h with 50 µg/ml zapnometinib or DMSO as solvent control and subsequently stimulated for 30 minutes with 400 nM PMA. Cell lysates of the PBMCs were then analyzed with Wes™ for phosphorylated and total protein, and the ratio was used to calculate the phosphorylation levels. […]

By EC50 is commonly meant the concentration giving half of the maximal effect. One may read the half-life as the time in which the quantity being followed falls by half. The term AUC denotes concentration integrated over time. Low values mean low exposure, high ones high exposure. As a reminder, the Cmax is the maximum level reached in the sampled fluid or tissue. What is called Tmax is the time at which the peak concentration occurs. In general, CC50 refers to the concentration at which the toxic effect on the cells reaches its halfway point. In the case of `O=C(O)c1ccc(F)c(F)c1Nc1ccc(I)cc1Cl` [zapnometinib, 2-(2-Chloro-4-Iodophenylamino)-N-3,4-Difluoro benzoic acid], the tolerability result in the series “tolerability in mice” was “well tolerated and not toxic”. Moreover, in series [1], the “time to maximum plasma concentration (Cmax)” value was in the range of 2 to 4 h. Also, in series [2] (25 mg/kg p.o. twice, t = 10 h), the “plasma concentration two hours after the second administration” value was 101000 ± 16000 ng/mL. The “plasma concentration prior to the second treatment” value in series [2] (25 mg/kg p.o., t = 8 h) was 36000 ± 8000 ng/mL. For the same compound, the “mean plasma concentration at 24 h” value was determined as 1000 ± 200 ng/mL in series [3] (15 mg/kg BID p.o.) and 200 ± 600 ng/mL in series [3] (60 mg/kg OD p.o.). Besides, the “plasma concentration 12 h after the first treatment” value in series [3] (15 mg/kg BID p.o., before second dose) was determined as 2000 ± 100 ng/mL. In addition, the EC50 in series [4] is 4.2 to 6.4 µM. In the series “in vivo”, this compound showed a half-life of 8 h. Also, in the series “in vivo” (po, 25 mg/kg), the AUC amounted to 1390 µg·h/mL. In addition, the peak level in “in vivo” (po, 25 mg/kg) (Cmax) was 69000 ± 24000 ng/mL. Moreover, the Tmax in “in vivo” (po, 25 mg/kg, Tmax,1, mice, 25 mg/kg p.o., after first treatment) amounted to 2 h; in “in vivo” (po, 25 mg/kg, Tmax,2, mice, 25 mg/kg p.o. twice, second dose at 8 h) it was 10 h. For the same compound, in the series on human PBMCs, the CC50 was 322 µM. The “phosphorylation of MEK” value in the series on MEK1/2 is “directly prevents the phosphorylation of MEK”.
